Tests used:
[1] = test system: IL6 production in RAW 264.7 macrophage cell line; test: Mouse IL6 quantification assay (LPS-stimulated macrophages, ELISA); type: cell-based; conditions: RAW264.7, RAW 264.7 murine leukemia virus transformed macrophage cell lines, LPS stimulation, read-out: IL-6 % Inhibition at 30 μM
[2] = test system: TNFα production in RAW 264.7 macrophage cell line; test: Mouse TNF alpha quantification assay (LPS-stimulated macrophages, ELISA); type: cell-based; conditions: RAW264.7, RAW 264.7 murine leukemia virus transformed macrophage cell lines, LPS stimulation, read-out: TNF-α % Inhibition at 30 μM

Row | SMILES | inhibition at 30 µM [1] [%] | inhibition at 30 µM [2] [%]
1 | Cn1cc(C2CC2C(=O)Nc2nnc(-c3ccccn3)[nH]2)cn1 (centres unmarked) [drawing 1932] | 0 | 1 to 25
2 | COc1cccc(CC(=O)Nc2nnc(-c3ccccn3)[nH]2)c1 [drawing 1933] | 26 to 50 | 1 to 25
3 | O=C(CCn1ccc2ccccc21)Nc1nnc(-c2ccccn2)[nH]1 [drawing 1934] | 1 to 25 | 1 to 25
4 | O=C(Nc1nnc(-c2ccccn2)[nH]1)c1ccn(-c2ccccc2)n1 [drawing 1935] | 1 to 25 | 1 to 25
5 | Cc1c(C(=O)Nc2nnc(-c3ccccn3)[nH]2)oc2ccccc12 [drawing 1936] | 0 | 1 to 25
6 | CC(Oc1ccccc1Cl)C(=O)Nc1nnc(-c2ccccn2)[nH]1 (centres unmarked) [drawing 1937] | 26 to 50 | 1 to 25
7 | O=C(Nc1nnc(-c2ccccn2)[nH]1)c1ccn(-c2cccc(F)c2)n1 [drawing 1938] | 26 to 50 | 0
8 | COc1ccc(CCC(=O)Nc2nnc(-c3ccccn3)[nH]2)cc1 [drawing 1939] | 1 to 25 | 0
9 | COc1ccc2c(ccn2CC(=O)Nc2nnc(-c3ccccn3)[nH]2)c1 [drawing 1940] | 26 to 50 | 1 to 25
10 | O=C(CCc1c[nH]c2ccccc12)Nc1nnc(-c2ccccn2)[nH]1 [drawing 1941] | 51 to 75 | 0
11 | O=C(Nc1nnc(-c2ccccn2)[nH]1)c1ccc2ccccc2n1 [drawing 1942] | 1 to 25 | 0
12 | Cc1ccc(CC(=O)Nc2nnc(-c3ccccn3)[nH]2)cc1 [drawing 1943] | 1 to 25 | 0
13 | Cn1cc(-c2nc(C(=O)Nc3nnc(-c4ccccn4)[nH]3)cs2)cn1 [drawing 1944] | 51 to 75 | 1 to 25
14 | Cn1ccc(C(=O)Nc2nnc(-c3ccccn3)[nH]2)cc1=O [drawing 1945] | 0 | 1 to 25
15 | Cc1c(C(=O)Nc2nnc(-c3ccccn3)[nH]2)oc2c1C(=O)CCC2 [drawing 1946] | 1 to 25 | 0
16 | C[C@H](NS(=O)(=O)c1ccccc1F)C(=O)Nc1nnc(-c2ccccn2)[nH]1 [drawing 1947] | 51 to 75 | 1 to 25
17 | CC(OCC(F)(F)F)C(=O)Nc1nnc(-c2ccccn2)[nH]1 (centres unmarked) [drawing 1948] | 0 | 1 to 25
18 | CC(C)c1nc(CC(=O)Nc2nnc(-c3ccccn3)[nH]2)cs1 [drawing 1949] | 1 to 25 | 0
19 | O=C(Nc1nnc(-c2ccccn2)[nH]1)c1ccc(CN2C(=O)CCC2=O)cc1 [drawing 1950] | 0 | 1 to 25
20 | CC(C)c1noc(CCCC(=O)Nc2nnc(-c3ccccn3)[nH]2)n1 [drawing 1951] | 0 | 1 to 25
21 | CC(C)c1noc(CCC(=O)Nc2nnc(-c3ccccn3)[nH]2)n1 [drawing 1952] | 1 to 25 | 0
22 | O=C(Cc1cccs1)Nc1nnc(-c2ccccn2)[nH]1 [drawing 1953] | 1 to 25 | 1 to 25
23 | N#Cc1ccccc1OCC(=O)Nc1nnc(-c2ccccn2)[nH]1 [drawing 1954] | 1 to 25 | 0
24 | O=C(Nc1nnc(-c2ccccn2)[nH]1)C1COc2ccccc2C1 (centres unmarked) [drawing 1955] | 26 to 50 | 1 to 25
25 | O=C(Nc1nnc(-c2ccccn2)[nH]1)c1ccc(Oc2ccccc2)nc1 [drawing 1956] | 26 to 50 | 1 to 25

Row | SMILES | inhibition at 30 µM [1] [%] | inhibition at 30 µM [2] [%]
26 | Cc1noc(C)c1CC(=O)Nc1nnc(-c2ccccn2)[nH]1 [drawing 1957] | 1 to 25 | 0
27 | O=C(Nc1nnc(-c2ccccn2)[nH]1)C1CC(=O)N(CCc2ccccc2)C1 (centres unmarked) [drawing 1958] | 1 to 25 | 0
28 | CN(CC(=O)Nc1nnc(-c2ccccn2)[nH]1)S(C)(=O)=O [drawing 1959] | 0 | 1 to 25
29 | O=C(Cc1cccc(F)c1)Nc1nnc(-c2ccccn2)[nH]1 [drawing 1960] | 1 to 25 | 0
30 | O=C(Nc1nnc(-c2ccccn2)[nH]1)c1cccc(NC(=O)C2CCCO2)c1 (centres unmarked) [drawing 1961] | 1 to 25 | 0
31 | O=C(CC1CCCC1)NCC(=O)Nc1nnc(-c2ccccn2)[nH]1 [drawing 1962] | 1 to 25 | 1 to 25
32 | O=C(Nc1nnc(-c2ccccn2)[nH]1)c1ncoc1-c1cccs1 [drawing 1963] | 26 to 50 | 1 to 25
33 | O=C(Nc1nnc(-c2ccccn2)[nH]1)c1nc(N2CCOCC2)ncc1Cl [drawing 1964] | 1 to 25 | 0
34 | O=C(Nc1nnc(-c2ccccn2)[nH]1)C1Cc2ccccc2O1 (centres unmarked) [drawing 1965] | 1 to 25 | 0
35 | CC(Oc1ccccc1C#N)C(=O)Nc1nnc(-c2ccccn2)[nH]1 (centres unmarked) [drawing 1966] | 0 | 1 to 25
36 | CC(Oc1cccc(C#N)c1)C(=O)Nc1nnc(-c2ccccn2)[nH]1 (centres unmarked) [drawing 1967] | 1 to 25 | 0
37 | CC(Oc1ccc(C(=O)Nc2nnc(-c3ccccn3)[nH]2)cn1)c1ccccc1 (centres unmarked) [drawing 1968] | 1 to 25 | 0
38 | O=C(Nc1nnc(-c2ccccn2)[nH]1)C1CCCN(c2ncccn2)C1 (centres unmarked) [drawing 1969] | 0 | 1 to 25
39 | O=C(Cc1ccc(F)cc1)Nc1nnc(-c2ccccn2)[nH]1 [drawing 1970] | 1 to 25 | 1 to 25
40 | CC(OCc1ccccc1)C(=O)Nc1nnc(-c2ccccn2)[nH]1 (centres unmarked) [drawing 1971] | 1 to 25 | 0
41 | O=C(Nc1nnc(-c2ccccn2)[nH]1)C1CCCC(C(F)(F)F)C1 (centres unmarked) [drawing 1972] | 1 to 25 | 0
42 | O=C(COCc1ccccc1Cl)Nc1nnc(-c2ccccn2)[nH]1 [drawing 1973] | 26 to 50 | 1 to 25
43 | O=C(Nc1nnc(-c2ccccn2)[nH]1)C1CC1c1ccc(F)cc1 (centres unmarked) [drawing 1974] | 1 to 25 | 1 to 25
44 | Cc1ccc(CC(=O)Nc2nnc(-c3ccccn3)[nH]2)s1 [drawing 1975] | 1 to 25 | 0
45 | Cc1cccc(C(=O)Nc2nnc(-c3ccccn3)[nH]2)n1 [drawing 1976] | 1 to 25 | 0
46 | CC(Oc1ccc(C#N)cc1)C(=O)Nc1nnc(-c2ccccn2)[nH]1 (centres unmarked) [drawing 1977] | 1 to 25 | 1 to 25
47 | O=C(COc1ccc2c(c1)CCC2)Nc1nnc(-c2ccccn2)[nH]1 [drawing 1978] | 1 to 25 | 0
48 | O=C(Nc1nnc(-c2ccccn2)[nH]1)C1CCCN(c2cnccn2)C1 (centres unmarked) [drawing 1979] | 1 to 25 | 1 to 25
49 | O=C(Nc1nnc(-c2ccccn2)[nH]1)c1ccc(NC(=O)c2ccccn2)cc1 [drawing 1980] | 0 | 1 to 25
